Assay results reported in PubChem BioAssay AID256 (DTP/NCI, 2004).
Toxic doses and inconclusive results are not listed.

System: CD2F1 mice, L1210 leukemia ip, survival T/C
Assay: NCI In Vivo Anticancer Drug Screen. Data for tumor model L1210 Leukemia (intraperitoneal) in CD2F1 (CDF1) mice
Conditions: higher = longer survival
How it was run: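 Antitumor effect is scored in animals hosting a serially transplanted tumor. Values compare compound-dosed animals against vehicle-only controls as a simple quotient.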

[1] = endpoint: mean survival time, dose: 100.0 mg/kg/injection, schedule: Q04DX003 (ip), vehicle: saline with Tween-80
[2] = endpoint: mean survival time, dose: 100.0 mg/kg/injection, schedule: Q01DX001 (ip), vehicle: saline with Tween-80
[3] = endpoint: mean survival time, dose: 200.0 mg/kg/injection, schedule: Q01DX001 (ip), vehicle: saline with Tween-80

SMILES: CC(=O)ON1C(=O)C2C3C=CC(O3)C2C1=O (centres undefined)
- T/C (endpoint: mean survival time, dose: 12.5 mg/kg/injection, schedule: Q01DX009 (ip), vehicle: water): 100 % of control
- T/C (endpoint: mean survival time, dose: 25.0 mg/kg/injection, schedule: Q01DX009 (ip), vehicle: water): 91 % of control
- T/C (endpoint: mean survival time, dose: 50.0 mg/kg/injection, schedule: Q01DX009 (ip), vehicle: water): 96 % of control

SMILES: CCOC(=O)CCC(NC(=O)c1ccccc1NC)C(=O)OCC (centres undefined)
- T/C [1]: 101 % of control
- T/C (endpoint: mean survival time, dose: 200.0 mg/kg/injection, schedule: Q04DX003 (ip), vehicle: saline with Tween-80): 101 % of control
- T/C (endpoint: mean survival time, dose: 400.0 mg/kg/injection, schedule: Q04DX003 (ip), vehicle: saline with Tween-80): 103 % of control

SMILES: CSc1ccc(C2=CCCCC2)cc1
- T/C (endpoint: mean survival time, dose: 100.0 mg/kg/injection, schedule: Q04DX003 (ip), vehicle: saline): 91 % of control
- T/C (endpoint: mean survival time, dose: 200.0 mg/kg/injection, schedule: Q04DX003 (ip), vehicle: saline): 91 % of control
- T/C (endpoint: mean survival time, dose: 400.0 mg/kg/injection, schedule: Q04DX003 (ip), vehicle: saline): 96 % of control

SMILES: C#CCOCCCC(=C)C
- T/C (endpoint: mean survival time, dose: 100.0 mg/kg/injection, schedule: Q01DX001 (ip), vehicle: acetone): 98 % of control

SMILES: NC(=O)C1C=CN(Cc2ccccc2)C=C1
- T/C (endpoint: median survival time, dose: 30.0 mg/kg/injection, schedule: Q01DX005 (ip), vehicle: saline with Tween-80): 100 % of control
- T/C (endpoint: median survival time, dose: 60.0 mg/kg/injection, schedule: Q01DX005 (ip), vehicle: saline with Tween-80): 107 % of control
- T/C (endpoint: median survival time, dose: 120.0 mg/kg/injection, schedule: Q01DX005 (ip), vehicle: saline with Tween-80): 111 % of control

SMILES: COc1ccc(OC)c2[nH]c(=O)c(CCC(=O)O)nc12
- T/C [2]: 98 % of control
- T/C [3]: 92 % of control

SMILES: COCC(O)CN1CCN(c2ccccc2C)CC1 (centres undefined)
- T/C [1]: 93 % of control

SMILES: Cc1[nH]c(C(=O)NN)c(C)c1C(=O)NN
- T/C (endpoint: mean survival time, dose: 25.0 mg/kg/injection, schedule: Q01DX009 (ip), vehicle: saline with Tween-80): 111 % of control
- T/C (endpoint: mean survival time, dose: 50.0 mg/kg/injection, schedule: Q01DX009 (ip), vehicle: saline with Tween-80): 100 % of control
- T/C (endpoint: mean survival time, dose: 100.0 mg/kg/injection, schedule: Q01DX009 (ip), vehicle: saline with Tween-80): 103 % of control
- T/C [1]: 98 % of control

SMILES: Nc1ncnc(N2C(=S)OC3C(O)C(CO)OC32)c1N (centres undefined)
- T/C (endpoint: mean survival time, dose: 12.5 mg/kg/injection, schedule: Q01DX005 (ip), vehicle: water): 92 % of control
- T/C (endpoint: mean survival time, dose: 25.0 mg/kg/injection, schedule: Q01DX005 (ip), vehicle: water): 88 % of control
- T/C (endpoint: mean survival time, dose: 50.0 mg/kg/injection, schedule: Q01DX005 (ip), vehicle: water): 95 % of control
- T/C (endpoint: mean survival time, dose: 100.0 mg/kg/injection, schedule: Q01DX005 (ip), vehicle: water): 95 % of control
- T/C (endpoint: mean survival time, dose: 200.0 mg/kg/injection, schedule: Q01DX005 (ip), vehicle: water): 90 % of control

SMILES: CS(=O)(=O)C(Cl)(Cl)S(C)(=O)=O
- T/C (endpoint: mean survival time, dose: 6.25 mg/kg/injection, schedule: Q04DX003 (ip), vehicle: saline with Tween-80): 95 % of control
- T/C (endpoint: mean survival time, dose: 12.5 mg/kg/injection, schedule: Q04DX003 (ip), vehicle: saline with Tween-80): 91 % of control
- T/C (endpoint: mean survival time, dose: 25.0 mg/kg/injection, schedule: Q04DX003 (ip), vehicle: saline with Tween-80): 91 % of control

SMILES: CCCCC(O)C(=O)O (centres undefined)
- T/C (endpoint: mean survival time, dose: 75.0 mg/kg/injection, schedule: Q01DX001 (ip), vehicle: saline): 94 % of control
- T/C (endpoint: mean survival time, dose: 150.0 mg/kg/injection, schedule: Q01DX001 (ip), vehicle: saline): 96 % of control

SMILES: O=C1c2cccc([N+](=O)[O-])c2C(=O)c2c1cccc2[N+](=O)[O-]
- T/C [2]: 103 % of control
- T/C [3]: 102 % of control
- T/C (endpoint: mean survival time, dose: 400.0 mg/kg/injection, schedule: Q01DX001 (ip), vehicle: saline with Tween-80): 96 % of control

SMILES: Cc1c(-c2ccc(-c3ccccc3F)cc2)nc2ccc(F)cc2c1C(=O)O
- T/C (endpoint: median survival time, dose: 5.2 mg/kg/injection, schedule: Q01DX009 (ip), vehicle: water): 153 % of control
- T/C (endpoint: median survival time, dose: 6.25 mg/kg/injection, schedule: Q01DX009 (ip), vehicle: water): 165 % of control
- T/C (endpoint: median survival time, dose: 8.6 mg/kg/injection, schedule: Q01DX009 (ip), vehicle: water): 166 % of control
- T/C (endpoint: median survival time, dose: 12.5 mg/kg/injection, schedule: Q01DX009 (ip), vehicle: water): 168 % of control
- T/C (endpoint: median survival time, dose: 14.4 mg/kg/injection, schedule: Q01DX009 (ip), vehicle: water): 171 % of control
- T/C (endpoint: median survival time, dose: 24.0 mg/kg/injection, schedule: Q01DX009 (ip), vehicle: water): 172 % of control
- T/C (endpoint: median survival time, dose: 25.0 mg/kg/injection, schedule: Q01DX009 (ip), vehicle: water): 179 % of control
- T/C (endpoint: median survival time, dose: 40.0 mg/kg/injection, schedule: Q01DX009 (ip), vehicle: water): 175 % of control
- T/C (endpoint: median survival time, dose: 50.0 mg/kg/injection, schedule: Q01DX009 (ip), vehicle: water): 108 % of control
- T/C (endpoint: median survival time, dose: 66.7 mg/kg/injection, schedule: Q01DX009 (ip), vehicle: water): 116 % of control
- T/C (endpoint: median survival time, dose: 100.0 mg/kg/injection, schedule: Q01DX009 (ip), vehicle: water): 93 % of control
